Here are results for 4 molecules from US20110201113A1, “Ex Vivo Progenitor and Stem Cell Expansion and Differentiation for Use in the Treatment of Disease of the Nervous System” (priority 2010, published 2011).

For assay [1], the system named is Human neural stem cells. Briefly: Proliferation of neural stem cells treated with various bioactive molecules (alternating growth conditions, cell counting). The conditions noted are these: second 8 weeks of 16; factor + 1% FBS alternating weekly with EGF, bFGF, LIF, no FBS. Format: cell-based. As to the method: hNSC's were alternately cultured in media containing a certain growth factor and serum (GF+FBS) or in the media containing EFL but lacking the presence of fetal bovine serum (EFL−FBS) as shown in FIG. 3. The media was changed on days 7 and 14 after plating the cells. This example utilized an initial incubation in EFL−FBS, followed by incubation in media including FBS. Experimental analysis of hNSCs was carried out on days 5, 10, 15, and 20, if not otherwise indicated.
Medium 2 (+GFs): DMEM/F12 (1:1), 2% B27 (Gibco), 1% Pen-Strep (PAA), 1% FBS (Gibco)+one of the combination of growth factors (CNTF, Jagged, SHH, TGFa, Wnt1, Wnt5A, or all)
7 different combinations of growth factors were used: 2.1. CNTF (20 ng/ml, Peprotech); 2.2. Jagged (20 ng/ml, Peprotech); 2.3. SHH (20 ng/ml, Peprotech); 2.4. TGFa (20 ng/ml, Peprotech); 2.5 Wnt1 (20 ng/ml, R&D); 2.6 Wnt5A (20 ng/ml, R&D); and 2.7 all above.
On days 5, 10, 15, and 20, if not otherwise indicated, neurospheres were dissociated using trypsin and single cells were counted using a hemocytometer. As a control, hNSCs were continuously grown in the absence of serum, but in the presence of growth factors EFL (control). The color code indicates the specific growth factor (GF) that was used in the GF+FBS mode. Abbreviations used: GF, growth factor; CNTF, ciliary neurotrophic factor; Jagged, SHH, sonic hedgehog; TGFα, transforming growth factor alpha; Wnt1, wingless-type MMTV integration site family, member 1; Wnt5A wingless-type MMTV integration site family, […]; or combined (CNTF, Jagged, SHH, TGFα, Wnt1, Wnt5A), E, EGF; F, bFGF; L, LIF.
Human neural stem cells are most routinely grown in medium supplemented with EGF and bFGF (and LIF). […] Cells were grown for 16 weeks and counted regularly every two weeks. […] Cells were counted 8 times. […] At the last time point analyzed, 5 times more cells were grown with control medium than under any other conditions.

Assay [2] concerns Human neural stem cells. Kind of assay: Differentiation of neural stem cells to neurons and astrocytes (bTubIII immunostaining on laminin). To be noted: cells taken after 8 and 12 weeks in culture, 14 days on laminin without factors; 3 random fields counted. It counts as cell-based. As for the experimental part: Next, how the stimulation of signaling pathways affects the commitment of human neural stem cells to neuronal and glial lineages was examined. For differentiation, samples of cells grown in all 8 conditions were removed from proliferating cell populations (after 8 and 12 weeks in culture) and plated onto laminin coated coverslips. All additional factors were excluded from culture medium and cells were grown for 14 days. Next, cells were fixed and stained for neural and glial markers as described previously. Examples of immunocytochemistry analysis can be seen on FIG. 8. […] No cells were detected as positive for oligodendrocyte marker O4. After immunostaining, cells from 3 random fields were counted and their differentiation potential was estimated according to the number of bTubIII positive cells present in samples. Results can be seen on FIG. 9. […] Cells grown with Wnt5a had the least percentage of bTubIII positive cells (33%), all the other conditions gave 41 to 47% of bTubIII positive cells (in control 45%).

For the molecule “Jagged-1: Jagged growth factor, 20 ng/ml, Peprotech”, in assay [1], the “support of cell growth” value was “slightly more efficient than the others”.

With “TGFa: transforming growth factor alpha, 20 ng/ml, Peprotech”, the “support of cell growth” value in assay [1] is “slightly more efficient than the others”.

B1: Wnt5a: wingless-type MMTV integration site family, member 15a (as printed); growth factor, 20 ng/ml, R&D (protein, UniProt P41221 62-380, looked up)
Protein Wnt-5a: IIGAQPLCSQLAGLSQGQKKLCHLYQDHMQYIGEGAKTGIKECQYQFRHRRWNCSTVDNTSVFGRVMQIGSRETAFTYAVSAAGVVNAMSRACREGELSTCGCSRAARPKDLPRDWLWGGCGDNIDYGYRFAKEFVDARERERIHAKGSYESARILMNLHNNEAGRRTVYNLADVACKCHGVSGSCSLKTCWLQLADFRKVGDALKEKYDSAAAMRLNSRGKLVQVNSRFNSPTTQDLVYIDPSPDYCVRNESTGSLGTQGRLCNKTSEGMDGCELMCCGRGYDQFKTVQTERCHCKFHWCCYVKCKKCTEIVDQFVCK
On to B1, for which the “percentage of bTubIII positive cells” value in assay [2] is reported as 33%.

B2: Wnt1: wingless-type MMTV integration site family, member 1; growth factor, 20 ng/ml, R&D (protein, UniProt P04628 28-370, looked up)
Proto-oncogene Wnt-1: ANSSGRWWGIVNVASSTNLLTDSKSLQLVLEPSLQLLSRKQRRLIRQNPGILHSVSGGLQSAVRECKWQFRNRRWNCPTAPGPHLFGKIVNRGCRETAFIFAITSAGVTHSVARSCSEGSIESCTCDYRRRGPGGPDWHWGGCSDNIDFGRLFGREFVDSGEKGRDLRFLMNLHNNEAGRTTVFSEMRQECKCHGMSGSCTVRTCWMRLPTLRAVGDVLRDRFDGASRVLYGNRGSNRASRAELLRLEPEDPAHKPPSPHDLVYFEKSPNFCTYSGRLGTAGTAGRACNSSSPALDGCELLCCGRGHRTRTQRVTERCNCTFHWCCHVSCRNCTHTRVLHECL
Regarding B2, in assay [1], the “support of cell growth” value is recorded as “slightly more efficient than the others”.
